Assay results as given in PMC10636063, “Progesterone activation of β1-containing BK channels involves two binding sites” (Nature Communications, 2023).
“And” between values parts separate entries of the source, which are not always exact repeats. Equal entries are not always repeated.

Tests used:
[1] = target: T1, slo1 (cbv1 isoform)+β1 BK channels (Rattus norvegicus, UniProt P97678); experiment: Channel activity (NPo) in POPE/POPS planar lipid bilayers, cbv1+β1; type: biochemical; conditions: for normalized NPo, time course Fig 2E: 10uM PROG
T1 construct: made in house; host or cells: CHO cells, transient transfection; sucrose-gradient membrane preparation
Description: BK channel-forming slo1 cDNA (cbv1 isoform; AY330293) was cloned from rat cerebral artery SM cells, and inserted into pcDNA3.1 vector as described. BK β1 cDNA (KCNMB1 product; NP_011452; FJ154955) were isolated from rat cerebral artery SM cells and cloned as described. β4 cDNA (KCNMB4; NP_055320; AY028605) were generously provided by Dr. Ligia Toro. CHO cells were transiently transfected with cbv1 ± β1-, or β4-carrying pcDNA3.1 using X-tremeGENE HP (Sigma-Aldrich). Mutations to β1/4 cDNAs were conducted by Genscript, with sequences being confirmed to be >99% identical to KCNMB1 product; NP_011452 or β4 KCNMB4; NP_055320; respectively. β1/4 and mutant constructs were flag-tagged (DYKDDDDK-tag) by Genscript services for subsequent immunoprecipitation and use in microscale thermophoresis studies.
Proteins for electrophysiological recordings in artificial lipid bilayers remained untagged. Cells were transiently transfected as described above, pelleted and re-suspended on ice in 10 ml of buffer solution of the following composition (mM): 30 KCl, 2 MgCl2, 10 HEPES, 5 EGTA; pH 7.2. A membrane preparation was obtained using a sucrose gradient as described. Aliquots were stored at −80 °C. BK channel-mediated ionic current was recorded in planar lipid bilayers consisting of a POPE:POPS 3:1 (w/w) mixture. Lipid mixtures were dried under N2 and re-suspended in 25 mg/ml of n-decane BK currents following incorporation into horizontal bilayers at 300/30 mM cis/trans gradient as detailed elsewhere. Ion currents were obtained during a 10-min gap-free recording at 0 mV in the presence of 0.01, 10 μM PROG, 10 μM PROG-oxime, or vehicle control (dimethyl sulfoxide; DMSO). Currents were obtained in gap-free mode using a Warner BC-525D amplifier, low pass-filtered at 1 kHz and sampled at 5 kHz with Digidata 1550B/pCLAMP 11 (Molecular Devices). For comparison with previous data from us[16],[17],[45]–[47], studies were conducted at 20–22 °C. […]
Patch-clamp and bilayer data were analyzed using Clampfit 10.7 software (Molecular Devices). NPo was used as an index of channel steady-state activity where N = number of channels in the patch (defined as a maximal number of opening levels at Po≤1) and Po=single channel open probability. Drug-induced NPo changes were determined by comparing baseline NPo (i.e., NPo with the patch/cell perfused with bath solution) to the NPo from the same patch/cell exposed to the agent under study (DMSO/PROG/oxime) dissolved in bath solution. NPo and mean open time values were automatically calculated using Clampfit 10.7, the latter using a 50% threshold detection event.

[2] = system: pial arteries branching out of the MCA (C57BL/6J); experiment: Cerebral artery diameter through cranial window in vivo; set-up: species or system mouse
Description: Eight-12 week-old male and female C57BL/6J mice were anesthetized with a mixture of xylazine/ketamine (12/100 mg per kg) and kept anesthetized for the duration of the experiment with subsequent ketamine doses (50 mg/kg of weight) as needed. A catheter was inserted into the carotid artery so that the infusion went straight to the brain rather than towards the thoracic cavity. An area of the skull was cleared of tissue and thinned to expose the branching arteries originating from the MCA on the side the catheter was inserted, above the zygomatic arch, between the ear and eye of the skull[19],[34]. The exposed arteries branching out from the MCA were monitored using a Leica MC170 HD microscope with a mounted camera (Leica M125 C) connected to a computer monitor. Drugs were diluted to their final concentration in sodium saline (0.9% NaCl) and administered via catheter at 0.1 ml/25 g of weight. Cranial window images before and after drug administration were acquired every 60 seconds for subsequent analysis.

T1 sequence (P97678 whole entry, canonical isoform): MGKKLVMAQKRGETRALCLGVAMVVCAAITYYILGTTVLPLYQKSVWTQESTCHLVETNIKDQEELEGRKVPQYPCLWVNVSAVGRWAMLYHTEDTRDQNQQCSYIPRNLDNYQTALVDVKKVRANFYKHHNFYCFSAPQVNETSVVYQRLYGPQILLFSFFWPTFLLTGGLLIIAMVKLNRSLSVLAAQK
T1 sequence (Q62976 1-1148 isoform Q62976-2 partner): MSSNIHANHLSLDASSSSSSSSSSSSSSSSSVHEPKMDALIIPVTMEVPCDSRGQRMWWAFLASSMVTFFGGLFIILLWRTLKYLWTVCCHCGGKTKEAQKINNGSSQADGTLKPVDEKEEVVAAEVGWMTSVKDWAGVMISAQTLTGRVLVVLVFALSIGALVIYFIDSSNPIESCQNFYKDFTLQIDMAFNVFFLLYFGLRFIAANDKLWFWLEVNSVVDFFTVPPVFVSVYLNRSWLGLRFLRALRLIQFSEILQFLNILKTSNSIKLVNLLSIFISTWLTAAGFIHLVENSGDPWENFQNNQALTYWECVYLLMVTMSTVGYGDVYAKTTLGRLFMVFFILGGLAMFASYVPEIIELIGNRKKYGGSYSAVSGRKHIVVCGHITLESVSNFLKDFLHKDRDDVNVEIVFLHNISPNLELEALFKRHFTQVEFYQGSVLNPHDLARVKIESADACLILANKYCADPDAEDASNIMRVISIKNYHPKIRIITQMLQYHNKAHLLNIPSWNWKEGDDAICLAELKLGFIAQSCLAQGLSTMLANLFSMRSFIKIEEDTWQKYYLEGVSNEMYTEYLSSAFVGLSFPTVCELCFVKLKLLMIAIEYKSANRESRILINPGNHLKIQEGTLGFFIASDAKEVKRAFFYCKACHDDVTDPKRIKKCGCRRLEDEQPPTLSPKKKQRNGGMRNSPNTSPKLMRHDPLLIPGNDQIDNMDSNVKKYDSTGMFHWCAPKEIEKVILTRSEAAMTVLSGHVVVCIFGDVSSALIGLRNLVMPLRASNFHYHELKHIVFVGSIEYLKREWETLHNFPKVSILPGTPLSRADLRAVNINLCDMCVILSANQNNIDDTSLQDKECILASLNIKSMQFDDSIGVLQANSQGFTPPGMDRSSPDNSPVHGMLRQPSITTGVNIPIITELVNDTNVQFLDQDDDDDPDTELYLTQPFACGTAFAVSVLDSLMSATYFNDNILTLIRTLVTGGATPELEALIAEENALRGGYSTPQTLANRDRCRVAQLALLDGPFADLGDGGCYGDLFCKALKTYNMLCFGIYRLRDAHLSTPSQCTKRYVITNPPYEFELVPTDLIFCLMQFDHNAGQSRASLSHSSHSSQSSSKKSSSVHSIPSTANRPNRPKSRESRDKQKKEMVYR

With CC(=O)[C@H]1CC[C@H]2[C@@H]3CCC4=CC(=O)CC[C@]4(C)[C@H]3CC[C@]12C [PROG, Progesterone] the “ECmax (EC100) of channel activation” value ([1]; 0 mV, 30 μM free Ca2+) was 10 µM, the “concentrations at which the channel is activated” value ([1]; 0 mV, 30 μM free Ca2+) was “greater than 0.1 μM” and the NPo/NPobasal ([1]; 0.01 µM PROG, min 2, single records) was 1.005 and 1.018 and 0.9275 and 1.019. For the same compound, the NPo/NPobasal ([1]; 0.01 µM PROG, min 3, single records) was 1.029 and 1.009 and 1.058 and 0.9199, the NPo/NPobasal ([1]; 0.01 µM PROG, min 4, single records) was 1.061 and 1.114 and 0.9928 and 1.089 and the “NPo/NPobasal of the maximal channel activity” value ([1]; 0.01 µM PROG, single records (Fig 1F)) was 1.155 and 1 and 1.022 and 0.9918. For the same compound, the NPo/NPobasal ([1]; 0.1 µM PROG, min 2, single records) was 0.9159 and 1.034 and 0.6663 and 1.012, the NPo/NPobasal ([1]; 0.1 µM PROG, min 3, single records) was 0.7024 and 1.035 and 0.937 and 1.005 and the NPo/NPobasal ([1]; 0.1 µM PROG, min 4, single records) was 0.9376 and 1.037 and 1.102 and 0.9472. The NPo/NPobasal ([1]; 0.1 µM PROG, min 5, single records) was 0.831 and 1.031 and 0.9946, the NPo/NPobasal ([1]; 0.1 µM PROG, min 6, single records) was 0.9108 and 1.004 and the NPo/NPobasal ([1]; 0.1 µM PROG, min 7, single records) was 0.902 and 1.062. For the same compound, the NPo/NPobasal ([1]; 0.1 µM PROG, min 8, single records) was 0.9384 and 1.053, the NPo/NPobasal ([1]; 0.1 µM PROG, min 9, single records) was 0.9735 and 1.083 and the NPo/NPobasal ([1]; 0.1 µM PROG, min 10, single records) was 1.131 and 1.104. For the same compound, the NPo/NPobasal ([1]; 1 µM PROG, min 2, single records) was 1.067 and 1.036 and 1.018 and 0.9862, the NPo/NPobasal ([1]; 1 µM PROG, min 3, single records) was 1.103 and 0.992 and 0.9993 and 1.0069 and the NPo/NPobasal ([1]; 1 µM PROG, min 4, single records) was 0.9802 and 1.24 and 0.9671 and 1.426. The NPo/NPobasal ([1]; 1 µM PROG, min 5, single records) was 1.982 and 1.288 and 1.134 and 1.31, the NPo/NPobasal ([1]; 1 µM PROG, min 6, single records) was 1.589 and 1.543 and 1.405 and 1.4 and the NPo/NPobasal ([1]; 1 µM PROG, min 7, single records) was 1.339 and 1.38. The NPo/NPobasal ([1]; 1 µM PROG, min 8, single records) was 1.498 and 1.434, the NPo/NPobasal ([1]; 1 µM PROG, min 9, single records) was 1.121 and 1.382 and the NPo/NPobasal ([1]; 1 µM PROG, min 10, single records) was 1.43 and 1.377. The NPo/NPobasal ([1]; 3 µM PROG, min 3, single records) was 1.768 and 1.125 and 1.174, the NPo/NPobasal ([1]; 3 µM PROG, min 4, single records) was 2.026 and 1.046 and 1.706 and the NPo/NPobasal ([1]; 3 µM PROG, min 9, single records) was 2.184 and 1.286. The NPo/NPobasal ([1]; 3 µM PROG, min 10, single records) was 2.295 and 1.4507, the “normalized NPo, time course Fig 2E” value ([1]; cbv1+beta1, time 1 min (normalisation reference), columns = single bilayers) was 1 and the “normalized NPo, time course Fig 2E” value ([1]; cbv1+beta1, time 2 min) was 1.077 and 1.05 and 1.119 and 1.043 and 0.7556 and 0.908 and 1.053. The “normalized NPo, time course Fig 2E” value ([1]; cbv1+beta1, time 6 min) was 1.387 and 1.439 and 2.22 and 2.096 and 2.632 and 2.4507 and 1.714, the “normalized NPo, time course Fig 2E” value ([1]; cbv1+beta1, time 7 min) was 1.767 and 1.768 and 2.22 and 2.153 and 1.686 and 2.452 and 1.347 and the “normalized NPo, time course Fig 2E” value ([1]; cbv1+beta1, time 9 min) was 1.702 and 2.262 and 1.688 and 2.653 and 1.535 and 1.822. The “normalized NPo, time course Fig 2E” value ([1]; cbv1+beta1, time 10 min) was 1.856 and 2.788 and 1.831 and 1.767 and 1.527, the “action on channel activity (NPo)” value ([1]; 10 μM, cis chamber, vs DMSO) was “readily and robustly activated” and the NPo/NPobasal ([1]; 100 µM PROG, min 2, single records) was 0.9793 and 1.054 and 0.898. For the same compound, the NPo/NPobasal ([1]; 100 µM PROG, min 3, single records) was 1.51 and 1.02 and 1.024, the NPo/NPobasal ([1]; 100 µM PROG, min 4, single records) was 1.597 and 1.676 and 0.9571 and the NPo/NPobasal ([1]; 100 µM PROG, min 5, single records) was 1.91 and 2.009 and 1.692. The NPo/NPobasal ([1]; 100 µM PROG, min 6, single records) was 2.017 and 2.015 and 2.955, the NPo/NPobasal ([1]; 100 µM PROG, min 7, single records) was 1.186 and 2.342 and 2.352 and the NPo/NPobasal ([1]; 100 µM PROG, min 8, single records) was 1.501 and 2.445 and 2.086. For the same compound, the NPo/NPobasal ([1]; 100 µM PROG, min 9, single records) was 1.524 and 2.434, the NPo/NPobasal ([1]; 100 µM PROG, min 10, single records) was 1.446 and 2.664 and the “in vivo action on MCA branches” value ([2]; 10 μM infused via carotid artery, both sexes) was “vasodilation”. For the same compound, the “artery diameter, normalized to time 0” value ([2]; Fig 7C, time 4, individual replicates, male mice) was 1.09 (2×) and 1.035 and 1.058 and 0.9438, the “artery diameter, normalized to time 0” value ([2]; Fig 7C, time 5, individual replicates, male mice) was 1.016 and 1.1 and 0.9912 and 1.082 and 0.9491 and the “artery diameter, normalized to time 0” value ([2]; Fig 7C, time 6, individual replicates, male mice) was 1.051 and 1.116 and 1.012 and 1.08 and 1.037. The “artery diameter, normalized to time 0” value ([2]; Fig 7C, time 7, individual replicates, male mice) was 1.112 and 1.049 and 1.05 and 1.107 and 1.058, the “artery diameter, normalized to time 0” value ([2]; Fig 7C, time 8, individual replicates, male mice) was 1.011 and 1.1193 and 1.034 and 1.1 and 1.095 and the “artery diameter, normalized to time 0” value ([2]; Fig 7C, time 9, individual replicates, male mice) was 1.079 and 1.105 and 1.031 and 1.086 and 1.089. The “artery diameter, normalized to time 0” value ([2]; Fig 7C, time 10, individual replicates, male mice) was 1.09 and 1.053 and 0.9685 and 1.068 and 1.048, the “artery diameter, normalized to time 0” value ([2]; Fig 7C, time 11, individual replicates, male mice) was 1.108 and 1.043 and 1.018 and 1.059 and 1.07 and the “artery diameter, normalized to time 0” value ([2]; Fig 7C, time 12, individual replicates, male mice) was 0.9973 and 1.002 and 1.105 and 1.107 and 1.084. For the same compound, the “artery diameter, normalized to time 0” value ([2]; Fig 7C, time 13, individual replicates, male mice) was 1.13 and 1.0049 and 1.077 and 1.135 and 1.0321, the “artery diameter, normalized to time 0” value ([2]; Fig 7D, time 4, individual replicates, female mice) was 1.137 and 1.058 and 0.95 and 1.071 and 1.184 and the “artery diameter, normalized to time 0” value ([2]; Fig 7D, time 5, individual replicates, female mice) was 0.9598 and 1.079 and 0.97 and 0.997 and 1.229. The “artery diameter, normalized to time 0” value ([2]; Fig 7D, time 6, individual replicates, female mice) was 1.069 and 1.14 and 1.01 and 1.116 and 1.159, the “artery diameter, normalized to time 0” value ([2]; Fig 7D, time 7, individual replicates, female mice) was 1.131 and 1.157 and 1.04 and 1.012 and 1.149 and the “artery diameter, normalized to time 0” value ([2]; Fig 7D, time 8, individual replicates, female mice) was 1.128 and 1.058 and 1.05 and 1.074 and 1.104. The “artery diameter, normalized to time 0” value ([2]; Fig 7D, time 9, individual replicates, female mice) was 1.1 and 1.083 and 1.05 and 1.009 and 1.17, the “artery diameter, normalized to time 0” value ([2]; Fig 7D, time 10, individual replicates, female mice) was 1.137 and 1.135 and 1.10 and 1.112 and 1.096 and the “artery diameter, normalized to time 0” value ([2]; Fig 7D, time 11, individual replicates, female mice) was 1.0383 and 1.014 and 1.12 and 1.119 and 1.133. The “artery diameter, normalized to time 0” value ([2]; Fig 7D, time 12, individual replicates, female mice) was 1.097 and 0.9908 and 1.08 and 1.129 and 1.16, the “artery diameter, normalized to time 0” value ([2]; Fig 7D, time 13, individual replicates, female mice) was 1.0971 and 1.058 and 1.25 and 1.0807 and 1.024 and the “artery diameter, normalized (PROG vs oxime comparison)” value ([2]; Fig 7F, same values as Fig 7D time 7, individual replicates, female mice) was 1.043.
